Assay results reported in PMC5089653, “Isoxazole‐Derived Amino Acids are Bromodomain‐Binding Acetyl‐Lysine Mimics: Incorporation into Histone H4 Peptides and Histone H3” (Angewandte Chemie (International Ed. in English), 2016).
Read-outs that look alike come from different tables or passages of the source.

What was measured:
BRD4(1) = molecular target: T1, BRD4(1) (Homo sapiens, UniProt O60885); assay: AlphaScreen assay inhibiting the interaction of BRD4(1) with biotinylated H4(KAc)4; assay type: binding; details: for inhibition at 0.004 µM / Percentage inhibition of bromodomain-KAc recognition, BRD4(1), H4(KAc)4: AlphaScreen, average of triplicate, BRD4(1) 10 nM, biotin-H4(KAc)4 4 nM
T1 construct: the phylogenetically diverse BAZ2A, BRD4(1), and BRD9 bromodomains; His tag (pNIC28-Bsa4 vector; purified on HisTrap) (N); made in house; host or cells: E. coli BL21 (DE3) Gold
Excerpt: (§1) Supporting Table S1: Percentage inhibition of bromodomain-KAc recognition by isoxazole-containing amino acids.
(§2) Inhibitory values of unprotected amino acids given as average percentage inhibition (buffer […]
(§3) measurements in triplicate (AlphaScreen). n.d. value not determined. Inhibition values highlighted as a heatmap from green (low inhibition) to red (high inhibition). […]
(§4) Protein expression and purification: bromodomain-containing constructs in pNIC28-Bsa4 vector backbones were transformed into E. coli BL21 (DE3) Gold cells. Flasks containing […]
(§5) starter culture. Flasks (2000 mL PYREX® narrow-mouth graduated Erlenmeyer flasks or plastic baffled flasks) were incubated at 37 °C and 180 rpm in an Innova® 44 shaker (New Brunswick Scientific). When OD600 reached 0.8-1.0, the temperature was lowered to 18 °C and IPTG was added to a final concentration of 0.25 mM to induce protein expression.
(§6) Cultures were incubated at 18 °C overnight, after which time cultures were harvested by centrifugation in a JA10 rotor in an Avanti J25 centrifuge (Beckman CoulterTM) at 8000 rpm for 15 min at 4 °C. The resulting pellet was weighed and stored in a sealable plastic bag at - 80 °C. Proteins were purified with a 3 mL HisTrapTM chromatography column (GE Healthcare), and Superdex 75 XK 16/600 gel filtration column (GE Healthcare) using standard

BAZ2A [1] = molecular target: T2, BAZ2A (Homo sapiens, UniProt Q9UIF9); assay: AlphaScreen single shot screening, BAZ2A with biotin-H3K14Ac peptide; assay type: binding; details: average of triplicate, BAZ2A 25 nM, biotin-H3 5-24 KAc14 50 nM, read-out: Percentage inhibition of bromodomain-KAc recognition, BAZ2A, H3K14Ac; for inhibition at 250 µM: amino acid 250 μM, <0.5% DMSO
T2 construct: the phylogenetically diverse BAZ2A, BRD4(1), and BRD9 bromodomains; Structural Genomics Consortium (Oxford)
T2 sequence (Q9UIF9 1793-1897 limits assumed): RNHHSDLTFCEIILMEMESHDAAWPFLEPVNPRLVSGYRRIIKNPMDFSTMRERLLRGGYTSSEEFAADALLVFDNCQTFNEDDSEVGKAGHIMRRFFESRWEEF
Excerpt: as §1, §2, §3, §4, §5
as §6, with “Healthcare), and Superdex 75 XK 16/600 gel filtration column (GE Healthcare) using standard” left out
(§7) AlphaScreen assay: AlphaScreen buffer (25 mM HEPES, 100 mM NaCl, 0.05% w/v CHAPS, 0.1% w/v BSA; pH 7.6) was prepared fresh each day, filter sterilization through a 0.22 µm filter, and stored at 4 °C, with equilibration to room temperature before use. Single shot screening against BAZ2A and BRD9A was carried out by the Structural Genomics Consortium (Oxford) as described previously.[12] Biotinylated peptides employed and final assay […]
(§8) biotin-H35-24KAc14 50 nM. Amino acids were tested at 25 µM and 250 µM with <0.5% DMSO.

BRD9 [2] = molecular target: T3, BRD9 (Homo sapiens, UniProt Q9H8M2); assay: AlphaScreen single shot screening, BRD9 with biotin-H2A(KAc)3 peptide; assay type: binding; details: average of triplicate, BRD9 40 nM, biotin-H2A 1-21 KAc9KAc13KAc15 25 nM, read-out: Percentage inhibition of bromodomain-KAc recognition, BRD9, H2(KAc)3; for inhibition at 25 µM: amino acid 50 μM as headed in Table 1 (supplement: 25 µM); for inhibition at 250 µM: amino acid 250 μM, <0.5% DMSO
T3 construct: the phylogenetically diverse BAZ2A, BRD4(1), and BRD9 bromodomains; Structural Genomics Consortium (Oxford)
T3 sequence (Q9H8M2 136-240 limits assumed): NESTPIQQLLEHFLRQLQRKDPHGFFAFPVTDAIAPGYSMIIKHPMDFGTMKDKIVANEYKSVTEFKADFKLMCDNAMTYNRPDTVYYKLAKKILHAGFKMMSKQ
Excerpt: as §1, §2, §3, §4, §5
as §6, with “Healthcare), and Superdex 75 XK 16/600 gel filtration column (GE Healthcare) using standard” left out
as §7, §8

bromodomain of BRDT = details: KAc mimics containing MTCTK; cited from earlier work
Excerpt: Lysine acetylation is a prevalent post‐translational modification (PTM) which plays a fundamental role in regulating protein function.1, 2 Although acetylated lysine (KAc) residues are found throughout the cellular environment,3, 4, 5 it is the role of this PTM in chromatin function which has garnered most recent interest.6 KAc is viewed as one of the “marks” that comprises the epigenetic code,7, 8 and enzymes that write (histone acetyl transferases) and erase (histone deacetylases) this modification are well characterized.9 Neutralization of lysine's positive charge by acetylation weakens the ...

BRD9 [3] = molecular target: T3, BRD9; assay: AlphaScreen single shot screening, BRD9 with biotin-H2A(KAc)3 peptide; assay type: binding; details: amino acid 50 μM as headed in Table 1 (supplement: 25 µM), average of triplicate, BRD9 40 nM, biotin-H2A 1-21 KAc9KAc13KAc15 25 nM, read-out: Percentage inhibition of bromodomain-KAc recognition, BRD9, H2(KAc)3
BAZ2A [4] = molecular target: T2, BAZ2A; assay: AlphaScreen single shot screening, BAZ2A with biotin-H3K14Ac peptide; assay type: binding; details: amino acid 50 μM as headed in Table 1 (supplement: 25 µM), average of triplicate, BAZ2A 25 nM, biotin-H3 5-24 KAc14 50 nM, read-out: Percentage inhibition of bromodomain-KAc recognition, BAZ2A, H3K14Ac
[5] = read-out: Percentage inhibition of bromodomain-KAc recognition, BRD4(1), H4(KAc)4, amino acid 50 μM
[6] = read-out: Percentage inhibition of bromodomain-KAc recognition, BRD4(1), H4(KAc)4, amino acid 250 μM, buffer blank 0%, 25% DMSO 100% inhibition
[7] = amino acid 250 μM, buffer blank 0%, 25% DMSO 100% inhibition

inhibition at 0.004 µM (BRD4(1); [5]) [%] | inhibition at 0.004 µM (BRD4(1); [6]) [%] | inhibition at 250 µM (BAZ2A [1]) [%] | inhibition (BAZ2A [1]) [%] | inhibition at 25 µM (BRD9 [2]) [%] | inhibition at 250 µM (BRD9 [2]) [%] | Structure (SMILES) | other results
4.7 | 18.5 | 53.8 | 1.9 | -8.1 | -0.1 | Cc1cc(CNC(=O)C[C@H](N)C(=O)O)on1 [compound 11] | 
4.1 | 7.5 | 25.1 | 1.4 | -4.8 | -3.1 | Cc1noc(C)c1NC(=O)CC[C@H](N)C(=O)O [compound 10, N5-(3,5-Dimethylisoxazol-4-yl)-L-glutamine] | 
 |  | 98.7 |  |  | 73.6 | Cc1cc(C(=O)NC[C@H](N)C(=O)O)on1 [compound 5, (S)-2-Amino-3-(3-methylisoxazole-5-carboxamido)propanoic acid] | inhibition at 50 µM (BRD9 [3]): 28.6%; Percentage inhibition of bromodomain-KAc recognition, BRD4(1), H4(KAc)4 (BRD4(1); amino acid 50 μM): 2.5%; Percentage inhibition of bromodomain-KAc recognition, BRD4(1), H4(KAc)4 (BRD4(1); [7]): 31.2%; inhibition at 50 µM (BAZ2A [4]): 58.1%
 |  | 84.3 | 14.5 | 1.4 | 14.6 | Cc1cc(NC(=O)C[C@H](N)C(=O)O)on1 [compound 14] | 
0.6 | 10.3 |  |  |  |  | Cc1cc(COC[C@H](N)C(=O)O)on1 [compound 4] | 

Further lines, the compound ahead of its results:

Structure (SMILES) | inhibition at 0.004 µM (BRD4(1); [5]) [%] | inhibition at 0.004 µM (BRD4(1); [6]) [%] | inhibition at 250 µM (BAZ2A [1]) [%] | inhibition (BAZ2A [1]) [%] | inhibition at 25 µM (BRD9 [2]) [%] | inhibition at 250 µM (BRD9 [2]) [%] | other results
Cc1cc(CCC[C@H](N)C(=O)O)on1 [compound 3, (S)-2-Amino-5-(3-methylisoxazol-5-yl)pentanoic acid] |  |  |  |  |  |  | Percentage inhibition of bromodomain-KAc recognition, BRD4(1), H4(KAc)4 (BRD4(1); amino acid 50 μM): 2.3%; Percentage inhibition of bromodomain-KAc recognition, BRD4(1), H4(KAc)4 (BRD4(1); [7]): 16.4%
Cc1noc(C)c1-c1cc(O)cc(C(O)c2ccccc2)c1 (stereo not drawn) [compound 2, reference compound] |  |  |  |  |  |  | inhibition by positive control (BRD4(1); included on each plate of the amino acid screen as a positive control, in every case, concentration not given): 100%
Cc1noc(C)c1NC(=O)C[C@H](N)C(=O)O [compound 12] | 1.3 | 23.5 | 66.9 | 10.5 | -2.1 | 12.6 | 
CSC(=O)NCCSC[C@H](N)C(=O)O [compound 7, methylthiocarbonylthialysine] |  |  |  |  |  |  | interaction with the bromodomain of BRDT compared to KAc (bromodomain of BRDT): two‐ to fourfold less efficiently
Cc1noc(C)c1-c1ccc(C[C@H](N)C(=O)O)cc1 [compound 9] | 22.7 | 45.8 | 28.1 | 2.6 | -1.7 | 66.5 | 
CC(=O)NCCCC[C@H](N)C(=O)O [KAc, reference compound] |  |  |  |  |  |  | Percentage inhibition of bromodomain-KAc recognition, BRD4(1), H4(KAc)4 (BRD4(1); amino acid 50 μM): 4.6%
Cc1cc(NC(=O)C[C@H](N)C(=O)O)no1 [compound 13] | 0.9 | 26.3 | 96.1 | 12.6 | -1 | 47.9 | 
Cc1noc(C)c1-c1cccc(C[C@H](N)C(=O)O)c1 [compound 8] | 18.3 | > 70 | 45.3 | 5.8 | -7.7 | 0.5 | Percentage inhibition of bromodomain-KAc recognition, BRD4(1), H4(KAc)4 (BRD4(1); [7]): 76.3%
